{
  "source": "patent US20170058314A1",
  "about": "“NOVEL METHODOLOGY FOR IDENTIFYING ANTI-PERSISTER ACTIVITY AND ANTIMICROBIAL SUSCEPTIBILITY FOR BORRELIA BURGDORFERI AND OTHER BACTERIA” (priority 2014, published 2017)",
  "tested_on": "M. tuberculosis H37Ra WT",
  "format": "cell-based, Mycobacterium tuberculosis",
  "data": [
    {"smiles": "NC(=O)c1cnccn1", "note": "[PZA, pyrazinamide]", "values": [
      {"measurement": "residual viability of H37Ra WT compared with PZA resistant mutants", "result": "obviously decreased"}
    ]}
  ]
}
